According to patent publication US11396504B2, “Alkoxybenzo-five-membered (six-membered) heterocyclic amine compound and pharmaceutical use thereof” (FUDAN UNIVERSITY, priority 2018, dated 2022):

Experiments:
[1] = target: T1, Sphingomyelin Synthase 1 (SMS1 pure enzyme) (Homo sapiens, UniProt Q86VZ5); experiment: In vitro SMS1 pure enzyme inhibition, HPLC fluorogenic quantitative detecting method; type: biochemical
T1 construct: Yu, Cao research group of National Protein Science Center (Shanghai)
T1 sequence (Q86VZ5 1-413): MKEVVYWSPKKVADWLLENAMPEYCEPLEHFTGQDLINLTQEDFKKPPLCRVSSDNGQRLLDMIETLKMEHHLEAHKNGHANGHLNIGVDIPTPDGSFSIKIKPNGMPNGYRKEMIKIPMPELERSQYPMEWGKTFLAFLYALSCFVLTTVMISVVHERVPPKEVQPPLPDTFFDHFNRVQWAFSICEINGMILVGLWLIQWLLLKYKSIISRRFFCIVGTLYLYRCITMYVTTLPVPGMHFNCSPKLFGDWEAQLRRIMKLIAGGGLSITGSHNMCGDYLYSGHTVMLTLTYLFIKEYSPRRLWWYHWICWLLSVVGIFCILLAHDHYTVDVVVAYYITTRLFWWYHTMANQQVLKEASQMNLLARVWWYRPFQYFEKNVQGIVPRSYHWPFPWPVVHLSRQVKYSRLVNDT
Excerpt: Referring to the above SMS2 inhibitory activity detection method, and using SMS1 pure enzyme instead of SMS2 pure enzyme for corresponding operation.
(§1) Using the same HPLC fluorogenic quantitative detecting method as reference (Xiaodong Deng; Hong Sun; et al. Analytical Letters, 2012, 45:12, 1581-1589) to analyses samples obtained above. Analysize and record peak areas of C6-NBD-SM (Asm) and C6-NBD-Ceramide (Acer) of each sample from blank group, positive control group (compound D2) and under tested compound group. Calculate inhibition rate from the formula below: […]
Part 4. Determination of SMS1 Median Inhibitory Concentration (IC50) and SMS1 Single Concentration (50 μM) Inhibitory Concentration of Alkoxybenzeno Five- or Six-Member Heterocyclic Amines (Scheme I-1˜I-38)
The experiment can be carried out with the corresponding concentration according to the operation similar to the determination of the median inhibitory concentration (IC50) of SMS2.

[2] = target: T2, Sphingomyelin Synthase 2 (SMS2 pure enzyme) (Homo sapiens, UniProt Q8NHU3); experiment: In vitro SMS2 pure enzyme inhibition, HPLC fluorogenic quantitative detecting method (C6-NBD-Ceramide to C6-NBD-SM); type: biochemical; details: for Selectivity ratio: SMS1 IC50 relative to SMS2 IC50; for IC50: SMS2 pure enzyme, five concentrations, three parallel groups, experimental value
T2 construct: Yu, Cao research group of National Protein Science Center (Shanghai)
T2 sequence (Q8NHU3 1-365): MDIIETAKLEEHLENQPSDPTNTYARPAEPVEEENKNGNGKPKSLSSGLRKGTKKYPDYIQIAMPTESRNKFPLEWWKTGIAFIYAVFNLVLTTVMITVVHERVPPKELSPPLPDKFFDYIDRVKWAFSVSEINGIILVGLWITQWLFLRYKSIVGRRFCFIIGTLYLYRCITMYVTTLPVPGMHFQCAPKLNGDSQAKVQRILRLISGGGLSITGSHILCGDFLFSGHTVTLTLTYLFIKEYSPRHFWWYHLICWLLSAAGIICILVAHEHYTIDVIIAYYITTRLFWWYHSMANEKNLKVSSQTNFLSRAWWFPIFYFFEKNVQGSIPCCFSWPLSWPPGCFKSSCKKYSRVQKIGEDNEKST
Experimental: Add […] SMS2 pure enzyme DDM solution (total protein content 1.5 μg/μL), 1 μL test compound in DMSO solution or blank DMSO solution, 79.7 μL DDM buffer to 1.5 mL Eppendorf tube, vortex 30 seconds, let stand at room temperature for 5 min. Then add 20 μL DDM buffer containing 1 μL DMPC in ethanol (40 mmol/L) and 1 μL C6-NBD-Ceramide in DMSO (1.16 mmol/L). After vortexing for 30 seconds, Incubate for 0.5 h under water bath at 37° C. Then remove, add 200 μL of absolute ethanol, and vortex for 30 seconds. Take out 200 μL of the mixture and store it at 4° C. for high performance liquid chromatography analysis.
as §1
The DMSO stock solution of under tested compound (6 mM) was diluted stepwise into five concentration gradient. 1 μL solution of each concentration was added into the trial system to prepare samples with the method mentioned in the first step of application case 15. The Asm values of the five concentration solution of tested compound were measured (compound D2 is a positive control), and the inhibition rate under the five concentration were calculated and fitted to obtain median inhibitory concentration (IC50). Each compound was measured three parallel groups. SMS2 median inhibitory concentration and SMS1 single inhibitory concentration (50 μM) of Scheme I-1˜I-38, and SMS1 median inhibitory concentration of some compounds are listed below in Table 1.

SMILES	IC50 [1]	inhibition at 50 µM ([1]; single concentration 50 μM)	Selectivity ratio [2]	IC50 [2]	SMS1 Inhibition (50 μM) ([1]; single concentration 50 μM)
CCc1ccccc1COc1cccc2onc(Nc3cccnc3)c12 [Scheme I-1, 4-((2-ethylbenzyl)oxy)-N-(pyridin-3-yl)benzo[d]isoxazol-3-amine]	40000 nM	65%	342	117 nM	–
Fc1ccc(Cl)c(COc2cccc3onc(Nc4cccnc4)c23)c1 [Scheme I-2, 4-((2-Chloro-5-fluorobenzyl)oxy)-N-(pyridin-3-yl)benzo[d]-isoxazol-3-amine]	55000 nM	44%	539	102 nM	–
FC(F)(F)Oc1ccc(Cl)cc1COc1cccc2onc(Nc3cccnc3)c12 [Scheme I-3, 4-((5-chloro-2-(trifluoromethoxy)benzyl)oxy)-N-(pyridin-3-yl)benzo[d]isoxazol-3-amine]	–	49%	–	2000 nM	–
Fc1ccccc1COc1cccc2onc(Nc3cccnc3)c12 [Scheme I-4, 4-((2-fluorobenzyl)oxy)-N-(pyridin-3-yl)benzo[d]isoxazol-3-amine]	–	6%	–	660 nM	–
Fc1cccc(COc2cccc3onc(Nc4cccnc4)c23)c1 [Scheme I-5, 4-((3-fluorobenzyl)oxy)-N-(pyridin-3-yl)benzo[d]isoxazol-3-amine]	–	6%	–	156 nM	–
Fc1ccc(COc2cccc3onc(Nc4cccnc4)c23)cc1 [Scheme I-6, 4-((4-fluorobenzyl)oxy)-N-(pyridin-3-yl)benzo[d]isoxazol-3-amine]	–	7%	–	1520 nM	–
Clc1ccccc1COc1cccc2onc(Nc3cccnc3)c12 [Scheme I-7, 4-((2-chlorobenzyl)oxy)-N-(pyridin-3-yl)benzo[d]isoxazol-3-amine]	79000 nM	–	292	270 nM	41%
Clc1cccc(COc2cccc3onc(Nc4cccnc4)c23)c1 [Scheme I-8, 4-((3-chlorobenzyl)oxy)-N-(pyridin-3-yl)benzo[d]isoxazol-3-amine]	79000 nM	44%	840	94 nM	–
Clc1ccc(COc2cccc3onc(Nc4cccnc4)c23)cc1 [Scheme I-9, 4-((4-chlorobenzyl)oxy)-N-(pyridin-3-yl)benzo[d]isoxazol-3-amine]	–	5%	–	> 10000 nM	–
Cc1ccccc1COc1cccc2onc(Nc3cccnc3)c12 [Scheme I-10, 4-((2-methylbenzyl)oxy)-N-(pyridin-3-yl)benzo[d]isoxazol-3-amine]	70000 nM	41%	140	498 nM	–
Cc1cccc(COc2cccc3onc(Nc4cccnc4)c23)c1 [Scheme I-11, 4-((3-methylbenzyl)oxy)-N-(pyridin-3-yl)benzo[d]isoxazol-3-amine]	–	20%	–	190 nM	–
Cc1ccc(COc2cccc3onc(Nc4cccnc4)c23)cc1 [Scheme I-12, 4-((4-methylbenzyl)oxy)-N-(pyridin-3-yl)benzo[d]isoxazol-3-amine]	–	5%	–	–	–
FC(F)(F)c1ccccc1COc1cccc2onc(Nc3cccnc3)c12 [Scheme I-13, 4-((2-Trifluoromethylbenzyl)oxy)-N-(pyridin-3-yl)benzo[d]isoxazole-3-amine]	–	21%	–	255 nM	–
FC(F)(F)c1cccc(COc2cccc3onc(Nc4cccnc4)c23)c1 [Scheme I-14, 4-((3-Trifluoromethylbenzyl)oxy)-N-(pyridin-3-yl)benzo[d]isoxazole-3-amine]	–	25%	–	486 nM	–
FC(F)(F)c1ccc(COc2cccc3onc(Nc4cccnc4)c23)cc1 [Scheme I-15, 4-((4-Trifluoromethylbenzyl)oxy)-N-(pyridin-3-yl)benzo[d]isoxazole-3-amine]	–	9%	–	> 10000 nM	–
COc1ccccc1COc1cccc2onc(Nc3cccnc3)c12 [Scheme I-16, 4-((2-Methoxybenzyl)oxy)-N-(pyridin-3-yl)benzo[d]isoxazol-3-amine]	48000 nM	49%	201	239 nM	–
COc1cccc(COc2cccc3onc(Nc4cccnc4)c23)c1 [Scheme I-17, 4-((3-Methoxybenzyl)oxy)-N-(pyridin-3-yl)benzo[d]isoxazol-3-amine]	–	17%	–	523 nM	–
COc1ccc(COc2cccc3onc(Nc4cccnc4)c23)cc1 [Scheme I-18, 4-((4-Methoxybenzyl)oxy)-N-(pyridin-3-yl)benzo[d]isoxazol-3-amine]	–	-5%	–	–	–
FC(F)(F)Oc1ccccc1COc1cccc2onc(Nc3cccnc3)c12 [Scheme I-19, 4-((2-Trifluoromethoxybenzyl)oxy)-N-(pyridin-3-yl)benzo[d]-isoxazol-3-amine]	67000 nM	59%	726	107 nM	–
FC(F)(F)Oc1cccc(COc2cccc3onc(Nc4cccnc4)c23)c1 [Scheme I-20, 4-((3-Trifluoromethoxybenzyl)oxy)-N-(pyridin-3-yl)benzo[d]-isoxazol-3-amine]	–	30%	–	1270 nM	–
FC(F)(F)Oc1ccc(COc2cccc3onc(Nc4cccnc4)c23)cc1 [Scheme I-21, 4-((4-Trifluoromethoxybenzyl)oxy)-N-(pyridin-3-yl)benzo[d]-isoxazol-3-amine]	–	5%	–	> 10000 nM	–
N#Cc1ccccc1COc1cccc2onc(Nc3cccnc3)c12 [Scheme I-22, 4-((2-Cyanobenzyl)oxy)-N-(pyridin-3-yl)benzo[d]isoxazol-3-amine]	–	4%	–	4140 nM	–
N#Cc1ccc(COc2cccc3onc(Nc4cccnc4)c23)cc1 [Scheme I-24, 4-((4-Cyanobenzyl)oxy)-N-(pyridin-3-yl)benzo[d]isoxazol-3-amine]	–	-18%	–	–	–
CN(c1cccnc1)c1noc2cccc(OCc3c(Cl)cccc3Cl)c12 [Scheme I-28, 4-((2,6-dichlorobenzyl)oxy)-N-methyl-N-(pyridin-3-yl)benzo[d]isoxazol-3-amine]	–	29%	–	–	–
c1ccc(COc2cccc3[nH]nc(Nc4cccnc4)c23)cc1 [Scheme I-29, 4-(benzyloxy)-N-(pyridin-3-yl)-1H-indazol-3-amine]	–	-7%	–	–	–
Cn1nc(Nc2cccnc2)c2c(OCc3ccccc3)cccc21 [Scheme I-30, 4-(benzyloxy)-1-methyl-N-(pyridin-3-yl)-1H-indazol-3-amine]	–	1%	–	–	–
c1ccc(COc2cccc3ccnc(Nc4cccnc4)c23)cc1 [Scheme I-32, 8-(benzyloxy)-N-(pyridin-3-yl)isoquinolin-1-amine]	–	18%	–	–	–
CN(C)CC(=O)Nc1noc2cccc(OCc3cc(F)ccc3Cl)c12 [Scheme I-34, N-(4-((2-chloro-5-fluorobenzyl)oxy)benzo[d]isoxazol-3-yl)-2-(dimethylamino)acetamide]	–	3%	–	–	–
CC(C)(C)OC(=O)N1CCC(CCCOc2cccc3onc(Nc4cccnc4)c23)CC1 [Scheme I-40, Tert-Butyl 4-(3-((3-(pyridin-3-ylamino)benzo[d]isoxazol-4-yl)oxy)propyl)piperidine-1-carboxylate]	–	9%	–	–	–
